Source: patent US20250179120A1, “CYCLIC PEPTIDE OR SALT THEREOF, AND MDMX INHIBITOR” (FUJIFILM Corporation, priority 2022, published 2025)
Numbered stars: 1 amine (or outer) side, 2 acyl side, 3 side chain; on linkers, the order of the positions; unused ones are H or OH. Square brackets hold non-standard residues; d marks the D form. Peptide text beside a SMILES is read from it. Ala(4-thiazolyl) = N[C@@H](Cc1cscn1)C(=O)O; Phe(4-Cl) = N[C@@H](Cc1ccc(Cl)cc1)C(=O)O; X1 = O=C(CSC[C@H](Cc1cscn1)N[*:1])[*:2]; Phe(4-F) = N[C@@H](Cc1ccc(F)cc1)C(=O)O; NHCH2CH2SCH2CO = O=C(CSCCN[*:1])[*:2]; NMeF = CN[C@@H](Cc1ccccc1)C(=O)O; Tle = CC(C)(C)[C@H](N)C(=O)O; hSer = N[C@@H](CCO)C(=O)O; NMeA = CN[C@@H](C)C(=O)O; dNMeA = CN[C@H](C)C(=O)O; Nme = COCCNCC(=O)O

Assay: Evaluation of cell membrane permeability (MDCKII permeation test, Papp)
Type: in vitro ADME
Conditions: MDCK, MDCKII cell layer, 10 μM in HBSS, apical to basal, 37° C.; for Papp A→B: 2 hours
Protocol: Evaluation of the cell membrane permeability of the cyclic peptide according to the embodiment of the present invention was carried out.
300 μL of MDCKII cells (ECACC standard cell line) were seeded at a density of 1.0×10^6 cells/mL onto an insert (dedicated for a 24-well plate, pore diameter: 3.0 μm, manufactured by Corning Incorporated) and cultured at 37° C. in a 5% CO2 environment. After three days, the electric resistance value of the cell layer was measured (using a measuring device), and it was confirmed that the cell layer had high barrier properties (>100 Ω·cm^2).
After the insert was washed by being immersed in HBSS (phenol red-free, the same applies hereinafter), 200 μL of a sample prepared in 10 μM/HBSS was added thereto, and the insert was allowed to stand in a low-adsorption 24-well plate containing 900 μL of HBSS (37° C., 5% CO2). After 2 hours, each liquid of an upper layer (apical) and a lower layer (basal) of the insert (10 μL for apical and 500 μL for basal) was recovered. After testing, no leakage was confirmed with Lucifer Yellow, which is a non-permeable fluorescent dye.
The device used was LC/MS/MS (triple quadrupole type).
Eluent: A) 5 mM ammonium formate, 0.2% formic acid/H2O, B) 0.1% formic acid/MeCN, flow rate: 0.5 mL/min, injection volume: 2 μL, column: ACQUITY UPLC BEH C18 Column, 1.7 μm, 2.1 mm×50 mm (manufactured by Waters Corporation), temperature: 70° C., gradient (% B): 2% (0 to 0.5 min)→98% (2 to 3 min)→2% (3 to 5 min), ionization: ESI, detection mode: MRM (positive)
Based on the calculation expression shown in Expression (1), a permeability coefficient Papp, which represents the membrane permeability, was calculated from each quantitative value.
C0: initial concentration (10 μM)
S: surface area (0.33 cm^2) of single layer membrane
dC/dt: concentration change at basal [μM/s]

SMILES | Papp A→B [×10⁻⁶ cm/s] | Papp A→B at 2 h, 10 μM (dog) [×10⁻⁶ cm/s]
COCC[C@@H]1NC(=O)[C@H](C)N(C)C(=O)[C@H](Cc2ccccc2)N(C)C(=O)[C@H](Cc2ccc(Cl)cc2)NC(=O)[C@H]([C@@H](C)O)NC(=O)[C@H](Cc2ccc(F)cc2)NC(=O)[C@@H]2CCCN2C(=O)CSCCNC(=O)[C@H](C)N(C)C1=O [compound 4] (cyclo([NMeA][hSer](Me)[NMeA][NHCH2CH2SCH2CO]P[Phe(4-F)]T[Phe(4-Cl)][NMeF])) | 0.1 to 0.25 | 
COCC[C@@H]1NC(=O)[C@H]2CCCN2C(=O)[C@H](Cc2ccccc2)N(C)C(=O)[C@H](Cc2ccc(Cl)cc2)NC(=O)[C@H](C(C)(C)C)NC(=O)[C@H](Cc2ccc(F)cc2)NC(=O)[C@H](C)N(C)C(=O)[C@@H](C)N(C)C(=O)[C@H](Cc2cscn2)NC(=O)[C@H](C)N(C)C1=O [Comparative Example 1, reference compound] (cyclo([Ala(4-thiazolyl)][dNMeA][NMeA][Phe(4-F)][Tle][Phe(4-Cl)][NMeF][dP][hSer](Me)[NMeA])) |  | < 0.1
COCC[C@@H]1NC(=O)[C@H](C)N(C)C(=O)[C@H](Cc2ccccc2)N(C)C(=O)[C@H](Cc2ccc(Cl)cc2)NC(=O)[C@H]([C@@H](C)O)NC(=O)[C@H](Cc2ccc(F)cc2)NC(=O)[C@@H]2CCCN2C(=O)CSC[C@H](Cc2cscn2)NC(=O)[C@H](C)N(C)C1=O [compound 5] (cyclo([NMeA][hSer](Me)[NMeA][X1]P[Phe(4-F)]T[Phe(4-Cl)][NMeF])) | 0.1 to 0.25 | 
COCC[C@@H]1NC(=O)[C@H](C)N(C)C(=O)[C@H](Cc2ccccc2)N(C)C(=O)[C@H](Cc2ccc(Cl)cc2)NC(=O)[C@H]([C@@H](C)O)NC(=O)[C@H](Cc2ccc(F)cc2)NC(=O)CN(CCOC)C(=O)CSC[C@H](Cc2cscn2)NC(=O)[C@H](C)N(C)C1=O [compound 6] (cyclo([NMeA][hSer](Me)[NMeA][X1][Nme][Phe(4-F)]T[Phe(4-Cl)][NMeF])) | 0.1 to 0.25 | 
COCC[C@@H]1NC(=O)[C@@H](C)N(C)C(=O)[C@H](Cc2ccccc2)N(C)C(=O)[C@H](Cc2ccc(Cl)cc2)NC(=O)[C@H]([C@@H](C)O)NC(=O)[C@H](Cc2ccc(F)cc2)NC(=O)[C@@H]2CCCN2C(=O)CSCCNC(=O)[C@H](C)N(C)C1=O [compound 3] (cyclo([NMeA][NHCH2CH2SCH2CO]P[Phe(4-F)]T[Phe(4-Cl)][NMeF][dNMeA][hSer](Me))) | 0.25 to 0.5 | 
